Reference: patent US20220170930A1, “METHOD FOR SCREENING COMPOUND FOR TREATING OR PREVENTING POLYQ-RELATED NEURODEGENERATIVE DISEASES” (FUDAN UNIVERSITY, priority 2019, published 2022)

What was measured:
HTTexon1-Q72-MBP = target: T1, HTTexon1-Q72-MBP (Homo sapiens, UniProt P42858, INS38QQQQQQQQQQQQQQQQQQQQQQQQQQQQQQQQQQQQQQQQQQQQQQQQQQQ); experiment: OI-RD affinity screening and affinity reaction parameters with HTTexon1-Q72; format: binding
T1 construct: made in house; host or cells: mammalian expression vector pTT5SH8Q2
Experimental: Each compound was printed in duplicate on the microarray. The compound not fixed on the surface of the chip was washed away. The chip was sealed and cleaned. 01-RD microscope was applied to scan the images. […] The chips are cleaned and scanned.
(§1) The difference images of the above steps (1), (2), (3) (the image after incubation minus the image before incubation) was analyzed respectively.
(§2) Each compound was printed in triplicates on the microarray. 01-RD was used to measure the affinity reaction parameters of compounds with HTTexon1-Q72 and HTTexon1-Q25.

HTTexon1-Q25-MBP = target: T2, HTTexon1-Q25-MBP (Homo sapiens, UniProt P42858, DUP35-38); experiment: OI-RD affinity with HTTexon1-Q25; format: binding
T2 construct: made in house; host or cells: mammalian expression vector pTT5SH8Q2
Experimental: OI-RD images before and after incubation with the target protein was obtained following the method in (1).
as §1, §2

LC3B [1] = target: T3, LC3B (Homo sapiens, UniProt Q9GZQ8); experiment: OI-RD affinity with LC3B; format: binding
T3 construct: His8 (N, cleaved yes); GST (from pGEX-6P1) (N, cleaved yes); made in house; host or cells: E. coli BL21(DE3)pLsyS
Experimental: 01-RD images before and after incubation with the target protein was obtained following the method in (1).
as §1
(§3) Each compound was printed in triplicates on the microarray. 01-RD was used to measure the affinity reaction parameters of the compound with LC3B, full-length mHTT (flHTT-Q73) and full-length HTT-Q23 (flHTT-Q23).

[2] = target: T4, full-length mHTT (flHTT-Q73) (Homo sapiens, UniProt P42858, INS38QQQQQQQQQQQQQQQQQQQQQQQQQQQQQQQQQQQQQQQQQQQQQQQQQQQQ); experiment: OI-RD affinity reaction parameters with flHTT-Q73; format: binding
T4 construct: LC3B, full-length mHTT (flHTT-Q73) and full-length HTT-Q23 (flHTT-Q23); protein A (N, cleaved yes); made in house; host or cells: human embryonic kidney E293 cells
Excerpt: as §3

flHTT-Q73 = target: T5, flHTT-Q73 (Homo sapiens, UniProt P42858, INS38QQQQQQQQQQQQQQQQQQQQQQQQQQQQQQQQQQQQQQQQQQQQQQQQQQQQ); experiment: MST affinity with flHTT-Q73; format: binding
T5 construct: LC3B, full-length mHTT (flHTT-Q73) and full-length HTT-Q23 (flHTT-Q23); protein A (N, cleaved yes); made in house; host or cells: human embryonic kidney E293 cells

LC3B [3] = target: T3, LC3B; experiment: MST affinity with LC3B; format: binding
mHTT [4] = experiment: Western-blot mHTT level in primary cultured cortical neurons; format: cell-based, mouse; details: 2 days
Experimental: (§4) Primary cultured cortical neurons: The brains of Hdh^Q140/Q7 and Hdh^Q7/Q7 newborn mice (P0) were dissected, digested, dissociated, and cultured.
(§5) (1) The primary cultured Hdh^Q140/Q7 and Hdh^Q7/Q7 mouse cortical neuron cells were treated with the compound for 2 days.

wtHTT = target: T6, wtHTT (Mus musculus, UniProt P42859); experiment: Western-blot wtHTT level in primary cultured cortical neurons; format: cell-based; details: Hdh^Q7/Q7 cortical neurons, 2 days
T6 construct: endogenous in cells; host or cells: primary cortical neurons of newborn Hdh Q140/Q7 and Hdh Q7/Q7 mice
Experimental: as §4, §5

mHTT [5] = target: T7, mHTT (Homo sapiens, UniProt P42858, INS38QQQQQQQQQQQQQQQQQQQQQQQQQQ); experiment: HTRF mHTT level in HD patient iPSC-derived neurons; format: cell-based; details: iPSC-derived neurons (Q47)
T7 construct: endogenous in cells; host or cells: HD patient iPSC-derived neurons (Q47)

[6] = target: T8, mutant ATXN3 protein (ATXN3-Q74) (Homo sapiens, UniProt P54252, G306R/INS305QQQQQQQQQQQQQQQQQQQQQQQQQQQQQQQQQQQQQQQQQQQQQQQQQQQQQQQQQQQQQQQQ/V212M); experiment: Western-blot mutant ATXN3 level in SCA3 patient fibroblasts; format: cell-based; details: 100 nM (compound 4: 50 nM), 2 days
T8 construct: endogenous in cells; host or cells: SCA3 patient fibroblasts (Q74)
Experimental: (§6) Then the levels of mutant ATXN3 protein (ATXN3-Q74, SEQ ID NO: 2) and wild-type ATXN3 protein (ATXN3-Q27, SEQ ID NO: 7) were determined by Western-blots (FIG. 26). […] Therefore, the compound of the present invention can be used to treat SCA3.

[7] = target: T9, wild-type ATXN3 protein (ATXN3-Q27) (Homo sapiens, UniProt P54252, G306R/INS305QQQQQQQQQQQQQQQQQ/V212M); experiment: Western-blot wild-type ATXN3 level in fibroblasts; format: cell-based; details: 100 nM (compound 4: 50 nM), 2 days
T9 construct: endogenous in cells; host or cells: wild-type fibroblasts (Q27) and/or the normal allele in SCA3 patient fibroblasts
Experimental: as §6

His-ATXN1-Q92 = target: T10, His-ATXN1-Q92 (Homo sapiens, UniProt P54253, INS208QQQQQQQQQQQQQQQQQQQQQQQQQQQQQQQQQQQQQQQQQQQQQQQQQQQQQQQQQQQQQQQQQQQQQQQQQQQQQQQQ); experiment: OI-RD affinity screening with His-ATXN1-Q92; format: binding; details: OI-RD difference images
T10 construct: made in house; host or cells: HEK293T cells (ATCC, CRL-3216)
Experimental: (1) PolyQ-ATXN1 cDNA (where polyQ is Q92) was synthesized de novo and subcloned into pcDNA vector. It transfected into HEK293T cells (ATCC, CRL-3216) to obtain cells expressing His-ATXN1-Q92 (SEQ ID NO: 3 with a His tag at the N-terminal).
(2) The His-ATXN1-Q92 expressed in (1) was purified to obtain ATXN1 with abnormally expanded polyQ.
To identify compound(s) that can bind to ATXN1 with abnormally expanded polyQ, screening was conducted using a method similar to step (1) of 1.1, except for that the target protein HTTexon1-Q72-MBP in step (1) of 1.1 was replaced with His-ATXN1-Q92.

[8] = target: T11, mutant ATXN1 protein (His-ATXN1-Q92) (Homo sapiens, UniProt P54253, INS208QQQQQQQQQQQQQQQQQQQQQQQQQQQQQQQQQQQQQQQQQQQQQQQQQQQQQQQQQQQQQQQQQQQQQQQQQQQQQQQQ); experiment: HTRF mutant ATXN1 level in His-ATXN1-Q92-expressing cells; format: cell-based; details: 100 nM, 2 days, anti-His-Tb/MW1-D2
T11 construct: expressed in transfected cells; host or cells: HEK293T cells (ATCC, CRL-3216)

mHTT [9] = experiment: Intracerebroventricular injection, mHTT and wtHTT in cortices of HD mice; format: in vivo, mouse; details: mouse, in vivo
Experimental: Experimental animals: Hdh^Q140/Q7 mice (3 months old), 4 in each group.
Each test includes three repetitions for each sample, and the mean values was calculated (FIG. 16).

Q25-GFP [10] = experiment: OI-RD affinity screening with Q25-GFP; format: binding; details: OI-RD difference images
Excerpt: (1) PolyQ-GFP cDNA sequence (expressing Met-polyQ-GFP, wherein polyQ was Q72 or Q25) was synthesized de novo and subcloned into pcDNA vector. […] And the same method was used to obtain cells expressing Q53-GFP, cells expressing Q46-GFP, and cells expressing Q38-GFP.

GFP = experiment: OI-RD affinity screening with GFP; format: binding; details: OI-RD difference images
Experimental: (§7) To identify compound(s) that can selectively bind to proteins containing expanded polyglutamine, screening was conducted using a method similar to 1.1, except for that the target protein HTTexon1-Q72-MBP in step (1) of 1.1 was replaced with the polyQ-GFP protein prepared in 10.1, and the target protein HTTexon1-Q25-MBP in step (2) of 1.1 was replaced with GFP.

[11] = system: proteins with expanded polyglutamine (polyQ-GFP); experiment: OI-RD affinity screening with polyQ-GFP proteins; format: binding; details: OI-RD difference images
Experimental: as §7

[12] = system: polyQ-GFP (Q72-GFP, Q25-GFP); experiment: polyQ-GFP level in HEK293T cells by Incucyte fluorescence counting; format: cell-based; details: Q72-GFP vs Q25-GFP expressing HEK293T cells, 100 nM compound 1, 100 nM compound 3 or 50 nM compound 4, 2 days
Excerpt: (1) PolyQ-GFP cDNA sequence (expressing Met-polyQ-GFP, wherein polyQ was Q72 or Q25) was synthesized de novo and subcloned into pcDNA vector. It was transfected into HEK293T cells (ATCC, CRL-3216) through forward transfection to obtain Q72-GFP expressing cells and Q25-GFP expressing cells, respectively. And the same method was used to obtain cells expressing Q53-GFP, cells expressing Q46-GFP, and cells expressing Q38-GFP.
The Q72-GFP expressing cells and Q25-GFP expressing cells obtained in step (1) of 10.1 were used. […] Then the level of polyQ-GFP was measured by Incucyte fluorescence counting (FIG. 25).

MBP-ATXN3-Q28 [13] = target: T12, MBP-ATXN3-Q28 (Homo sapiens, UniProt P54252, INS305QQQQQQQQQQQQQQQQQQ); experiment: OI-RD affinity screening with MBP-ATXN3-Q28; format: binding; details: OI-RD difference images
T12 construct: His8 with TEV protease cleavage site; made in house; host or cells: Escherichia coli Rosetta(DE3)pLsyS
Experimental: (§8) Screening was conducted using a method similar to 1.1, except for that the target protein HTTexon1-Q72-MBP in step (1) of 1.1 was replaced with MBP-ATXN3-Q68 and the target protein HTTexon1-Q25-MBP in step (2) of 1.1 was replaced with MBP-ATXN3-Q28, to obtain compounds that can selectively bind to ATXN3 with abnormally expanded polyQ (MBP-ATXN3-Q68).

MBP-ATXN3-Q28 [14] = target: T12, MBP-ATXN3-Q28; experiment: MST affinity with MBP-ATXN3-Q28; format: binding
Experimental: Protein concentration was 500 nM.

Q25-GFP [15] = experiment: MST affinity with Q25-GFP
Experimental: (§9) The affinity of the compound with full-length HTT and LC3B was verified with micro thermophoresis (MST) using Monolith NT.115 instrument from NanoTemper Technologies. The reaction buffer was 20 mM HEPES, pH 7.4, 150 mM NaCl.

MBP-ATXN3-Q68 [16] = target: T13, MBP-ATXN3-Q68 (Homo sapiens, UniProt P54252, INS305QQQQQQQQQQQQQQQQQQQQQQQQQQQQQQQQQQQQQQQQQQQQQQQQQQQQQQQQQQ); experiment: MST affinity with MBP-ATXN3-Q68
Experimental: as §9

MBP-ATXN3-Q68 [17] = target: T13, MBP-ATXN3-Q68; experiment: OI-RD affinity screening with MBP-ATXN3-Q68; format: binding; design: His8 with TEV protease cleavage site; made in house; host or cells: Escherichia coli Rosetta(DE3)pLsyS; details: OI-RD difference images
Experimental: as §8

T1 sequence (P42858 with tags, fused parts or gaps, stated change not applied): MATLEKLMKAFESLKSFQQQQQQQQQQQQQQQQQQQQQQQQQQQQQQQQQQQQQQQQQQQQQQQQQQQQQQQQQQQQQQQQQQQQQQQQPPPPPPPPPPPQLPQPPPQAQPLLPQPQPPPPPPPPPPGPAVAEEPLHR
T4 sequence (P42858 with tags, fused parts or gaps with the stated changes): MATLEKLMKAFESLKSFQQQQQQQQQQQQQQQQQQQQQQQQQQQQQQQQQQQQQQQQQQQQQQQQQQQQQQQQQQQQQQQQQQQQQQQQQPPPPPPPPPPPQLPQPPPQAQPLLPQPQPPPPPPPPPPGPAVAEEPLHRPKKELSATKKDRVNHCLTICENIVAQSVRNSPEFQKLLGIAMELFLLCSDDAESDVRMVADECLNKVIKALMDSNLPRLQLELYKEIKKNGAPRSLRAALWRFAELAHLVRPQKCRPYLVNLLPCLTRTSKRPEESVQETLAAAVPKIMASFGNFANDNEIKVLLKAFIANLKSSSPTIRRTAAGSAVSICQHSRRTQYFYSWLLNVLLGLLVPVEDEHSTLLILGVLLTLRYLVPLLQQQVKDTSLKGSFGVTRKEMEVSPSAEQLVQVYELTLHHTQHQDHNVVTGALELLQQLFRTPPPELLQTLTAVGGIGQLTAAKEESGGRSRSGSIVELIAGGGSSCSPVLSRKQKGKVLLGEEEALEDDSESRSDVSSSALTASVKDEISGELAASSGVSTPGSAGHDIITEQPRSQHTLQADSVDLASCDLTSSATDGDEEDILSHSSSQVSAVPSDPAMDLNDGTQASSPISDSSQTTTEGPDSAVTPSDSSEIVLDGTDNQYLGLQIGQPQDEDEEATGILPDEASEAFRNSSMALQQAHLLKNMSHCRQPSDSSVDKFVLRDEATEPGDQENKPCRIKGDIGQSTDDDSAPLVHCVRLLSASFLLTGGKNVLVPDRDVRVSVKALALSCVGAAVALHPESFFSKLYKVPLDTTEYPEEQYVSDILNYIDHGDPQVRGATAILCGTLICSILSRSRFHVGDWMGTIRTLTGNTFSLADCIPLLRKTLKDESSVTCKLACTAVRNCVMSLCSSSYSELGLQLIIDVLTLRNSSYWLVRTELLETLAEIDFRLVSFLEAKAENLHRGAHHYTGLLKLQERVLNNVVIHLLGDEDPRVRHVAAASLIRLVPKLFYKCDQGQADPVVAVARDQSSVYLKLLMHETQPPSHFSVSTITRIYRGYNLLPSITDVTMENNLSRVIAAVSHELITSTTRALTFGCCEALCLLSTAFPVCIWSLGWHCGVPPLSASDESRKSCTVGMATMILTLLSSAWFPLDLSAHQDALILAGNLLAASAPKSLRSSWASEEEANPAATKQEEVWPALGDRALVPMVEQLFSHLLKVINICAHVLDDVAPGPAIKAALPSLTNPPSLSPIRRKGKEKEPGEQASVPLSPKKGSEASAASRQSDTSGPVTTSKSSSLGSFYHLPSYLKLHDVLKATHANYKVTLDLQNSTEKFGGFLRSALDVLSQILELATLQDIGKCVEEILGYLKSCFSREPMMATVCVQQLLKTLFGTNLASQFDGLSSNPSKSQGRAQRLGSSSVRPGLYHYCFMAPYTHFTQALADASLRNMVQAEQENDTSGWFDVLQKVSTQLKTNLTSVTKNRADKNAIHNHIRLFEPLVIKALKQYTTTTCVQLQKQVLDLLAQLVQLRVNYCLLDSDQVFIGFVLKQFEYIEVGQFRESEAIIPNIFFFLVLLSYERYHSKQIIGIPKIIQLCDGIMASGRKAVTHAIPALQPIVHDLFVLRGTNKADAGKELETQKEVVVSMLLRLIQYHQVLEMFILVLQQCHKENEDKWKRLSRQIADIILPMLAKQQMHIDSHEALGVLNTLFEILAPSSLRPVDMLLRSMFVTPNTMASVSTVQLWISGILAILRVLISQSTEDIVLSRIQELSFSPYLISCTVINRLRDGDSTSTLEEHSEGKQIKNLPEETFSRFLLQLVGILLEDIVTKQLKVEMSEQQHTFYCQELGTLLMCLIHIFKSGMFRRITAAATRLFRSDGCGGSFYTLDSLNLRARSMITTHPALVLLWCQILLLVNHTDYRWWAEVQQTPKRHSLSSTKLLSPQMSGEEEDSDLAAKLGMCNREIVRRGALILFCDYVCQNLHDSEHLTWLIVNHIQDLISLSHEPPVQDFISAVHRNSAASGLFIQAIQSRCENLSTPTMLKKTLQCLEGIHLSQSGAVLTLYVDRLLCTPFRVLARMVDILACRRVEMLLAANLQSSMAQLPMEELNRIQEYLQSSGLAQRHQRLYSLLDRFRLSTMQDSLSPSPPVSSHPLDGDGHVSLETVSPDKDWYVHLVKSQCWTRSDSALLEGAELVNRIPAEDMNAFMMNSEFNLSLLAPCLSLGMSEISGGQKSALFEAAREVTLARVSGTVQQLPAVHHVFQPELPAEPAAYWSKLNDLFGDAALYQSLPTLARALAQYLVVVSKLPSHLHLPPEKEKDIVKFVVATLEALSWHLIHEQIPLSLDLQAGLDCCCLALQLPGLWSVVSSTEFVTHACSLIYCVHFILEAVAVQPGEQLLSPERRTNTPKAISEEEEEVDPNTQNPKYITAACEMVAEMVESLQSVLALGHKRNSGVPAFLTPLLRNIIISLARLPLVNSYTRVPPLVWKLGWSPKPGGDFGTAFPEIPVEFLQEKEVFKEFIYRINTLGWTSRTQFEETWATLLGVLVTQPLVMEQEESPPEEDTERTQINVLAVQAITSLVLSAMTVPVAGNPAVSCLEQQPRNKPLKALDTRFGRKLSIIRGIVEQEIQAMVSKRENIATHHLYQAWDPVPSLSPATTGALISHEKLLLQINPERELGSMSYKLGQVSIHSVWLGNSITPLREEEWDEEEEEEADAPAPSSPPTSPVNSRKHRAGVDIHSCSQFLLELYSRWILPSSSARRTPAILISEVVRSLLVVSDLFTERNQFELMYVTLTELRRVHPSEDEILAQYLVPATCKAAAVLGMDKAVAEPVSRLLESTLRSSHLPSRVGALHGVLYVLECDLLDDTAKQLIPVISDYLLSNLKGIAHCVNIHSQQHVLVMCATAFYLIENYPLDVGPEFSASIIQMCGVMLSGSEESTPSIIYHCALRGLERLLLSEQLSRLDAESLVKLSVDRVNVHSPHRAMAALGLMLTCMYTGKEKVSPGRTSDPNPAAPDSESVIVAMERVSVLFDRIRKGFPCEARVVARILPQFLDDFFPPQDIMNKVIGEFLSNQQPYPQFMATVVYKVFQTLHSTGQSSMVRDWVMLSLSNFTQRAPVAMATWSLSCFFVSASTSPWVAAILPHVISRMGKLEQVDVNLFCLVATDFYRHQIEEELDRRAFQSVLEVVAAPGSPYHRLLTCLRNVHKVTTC
T9 sequence (P54252 with tags, fused parts or gaps isoform P54252-1 with the stated changes): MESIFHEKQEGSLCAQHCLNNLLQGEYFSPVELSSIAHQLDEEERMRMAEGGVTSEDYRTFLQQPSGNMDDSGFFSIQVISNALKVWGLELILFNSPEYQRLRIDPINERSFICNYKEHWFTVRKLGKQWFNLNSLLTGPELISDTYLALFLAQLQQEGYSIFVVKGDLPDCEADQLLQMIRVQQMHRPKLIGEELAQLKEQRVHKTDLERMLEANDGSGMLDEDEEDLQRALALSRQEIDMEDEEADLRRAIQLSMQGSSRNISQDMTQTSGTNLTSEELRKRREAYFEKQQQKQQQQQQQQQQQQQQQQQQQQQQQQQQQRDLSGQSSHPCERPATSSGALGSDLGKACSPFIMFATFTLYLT
T8 sequence (P54252 with tags, fused parts or gaps isoform P54252-1 with the stated changes): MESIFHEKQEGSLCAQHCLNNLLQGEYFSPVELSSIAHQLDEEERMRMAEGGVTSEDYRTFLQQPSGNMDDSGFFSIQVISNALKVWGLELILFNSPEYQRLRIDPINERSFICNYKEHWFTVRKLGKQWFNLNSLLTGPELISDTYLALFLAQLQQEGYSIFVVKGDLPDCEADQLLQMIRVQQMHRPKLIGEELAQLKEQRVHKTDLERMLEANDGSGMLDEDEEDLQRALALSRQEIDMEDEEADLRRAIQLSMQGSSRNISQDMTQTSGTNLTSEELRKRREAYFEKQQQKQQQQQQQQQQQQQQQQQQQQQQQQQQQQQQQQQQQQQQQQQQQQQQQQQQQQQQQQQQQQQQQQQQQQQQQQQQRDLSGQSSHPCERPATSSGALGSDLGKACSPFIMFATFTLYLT
T10 sequence (P54253 with tags, fused parts or gaps with the stated changes): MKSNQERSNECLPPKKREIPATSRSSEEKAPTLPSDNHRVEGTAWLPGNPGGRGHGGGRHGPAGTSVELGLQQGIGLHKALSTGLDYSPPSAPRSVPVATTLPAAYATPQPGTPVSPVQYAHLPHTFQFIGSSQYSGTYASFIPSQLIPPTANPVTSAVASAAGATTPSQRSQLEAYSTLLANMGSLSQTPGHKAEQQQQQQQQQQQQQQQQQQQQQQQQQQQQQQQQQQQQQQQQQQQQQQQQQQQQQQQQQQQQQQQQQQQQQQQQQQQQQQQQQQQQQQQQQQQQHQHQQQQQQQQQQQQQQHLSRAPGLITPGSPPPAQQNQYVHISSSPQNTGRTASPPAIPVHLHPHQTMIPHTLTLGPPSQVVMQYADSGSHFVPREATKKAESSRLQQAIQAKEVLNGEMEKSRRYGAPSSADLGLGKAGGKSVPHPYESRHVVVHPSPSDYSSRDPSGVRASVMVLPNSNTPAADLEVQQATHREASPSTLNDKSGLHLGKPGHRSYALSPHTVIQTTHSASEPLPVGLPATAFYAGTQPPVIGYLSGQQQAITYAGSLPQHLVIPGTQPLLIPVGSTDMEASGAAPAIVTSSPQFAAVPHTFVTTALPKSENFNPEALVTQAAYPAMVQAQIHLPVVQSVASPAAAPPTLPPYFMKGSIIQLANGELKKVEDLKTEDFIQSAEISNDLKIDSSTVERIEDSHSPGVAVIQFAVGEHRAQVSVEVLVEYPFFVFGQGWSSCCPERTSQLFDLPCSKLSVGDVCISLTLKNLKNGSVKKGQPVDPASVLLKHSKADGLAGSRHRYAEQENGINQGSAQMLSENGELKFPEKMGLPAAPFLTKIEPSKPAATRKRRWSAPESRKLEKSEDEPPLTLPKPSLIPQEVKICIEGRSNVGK
T11 sequence (P54253 with tags, fused parts or gaps with the stated changes): as above
T5 sequence (P42858 with tags, fused parts or gaps with the stated changes): as the sequence (P42858 with tags, fused parts or gaps with the stated changes) above

SMILES: Cc1ccc(C(=O)N(CCCN)[C@@H](c2nc3cc(Cl)ccc3c(=O)n2Cc2ccccc2)C(C)C)cc1 [compound 2, ispinesib]
- Kd (HTTexon1-Q72-MBP): 29.2 nM
- binding to HTTexon1-Q72 (HTTexon1-Q72-MBP; OI-RD difference images): can bind
- Koff (HTTexon1-Q72-MBP; OI-RD, HTTexon1-Q72): 0.000104 s⁻¹
- Kon (HTTexon1-Q72-MBP; OI-RD, HTTexon1-Q72): 0.000213 min/nM
- binding to HTTexon1-Q25 (HTTexon1-Q25-MBP): do not bind
- Kd (LC3B [1]): 238 nM
- binding to LC3B (LC3B [1]; OI-RD difference images): can bind
- Koff (LC3B [1]; OI-RD, LC3B): 9.77e-05 s⁻¹
- Kon (LC3B [1]; OI-RD, LC3B): 2.46e-05 min/nM
- Kd [2]: 322 nM
- Koff ([2]; OI-RD, flHTT-Q73): 0.000345 s⁻¹
- Kon ([2]; OI-RD, flHTT-Q73): 6.43e-05 min/nM
- Kd (flHTT-Q73): 130 nM
- Kd (LC3B [3]): 3100 nM
- concentration range in which the effect of selectively reducing mHTT levels was observed (mHTT [4]): 30 to 100 nM
- preferred concentration for selectively reducing mHTT levels (mHTT [4]): 100 nM
- wtHTT levels (wtHTT): did not reduce wtHTT levels
- mHTT levels (mHTT [5]; 2B7/MW1): Decreased mHTT levels were observed
- mHTT levels (mHTT [5]; presence of the autophagy inhibitor NH4Cl): this effect was not observed
- mutant ATXN3 protein level [6]: A decrease in mutant ATXN3 protein level was observed
- wild-type ATXN3 protein level [7]: no decrease in wild-type ATXN3 protein level was observed
- binding to His-ATXN1-Q92 (His-ATXN1-Q92): can bind
- level of mutant ATXN1 protein (His-ATXN1-Q92) [8]: Decreased levels of mutant ATXN1 were observed

SMILES: O=C1Nc2ccc(Br)cc2/C1=C/c1cc(O)c(O)c(Br)c1 [compound 3]
- mHTT level in cortices (mHTT [9]): significantly reduced mHTT level
- binding to Q25-GFP (Q25-GFP [10]): did not bind
- binding to GFP (GFP): did not bind
- binding affinity to proteins with 38 or more glutamine repeats [11]: showed certain binding affinity
- level of proteins containing expanded polyglutamine in cells (polyQ-GFP) [12]: can selectively reduce the level
- binding to MBP-ATXN3-Q28 (MBP-ATXN3-Q28 [13]): did not bind
- binding affinity with normal ATXN3 protein (MBP-ATXN3-Q28) (MBP-ATXN3-Q28 [14]): no binding affinity
- mutant ATXN3 protein level [6]: A decrease in mutant ATXN3 protein level was observed
- wild-type ATXN3 protein level [7]: no decrease in wild-type ATXN3 protein level was observed
- binding to His-ATXN1-Q92 (His-ATXN1-Q92): can bind
- level of mutant ATXN1 protein (His-ATXN1-Q92) [8]: Decreased levels of mutant ATXN1 were observed
- binding affinity to Q25-GFP (Q25-GFP [15]): no binding affinity
- Kd (MBP-ATXN3-Q68 [16]): 1020 nM
- binding to MBP-ATXN3-Q68 (MBP-ATXN3-Q68 [17]): binded
